IC50 and CC50 data for 19 compounds are collected here from ChEMBL document CHEMBL5584311, “Antiviral Chlorinated Drimane Meroterpenoids from the Fungus Talaromyces pinophilus LD-7 and Their Biosynthetic Pathway” (J Nat Prod, 2024).

For orientation: IC50 means the concentration needed to halve the response being measured. What is called CC50 is the concentration giving 50% cytotoxicity.

In experiment [1] the test system is Vesicular stomatitis virus. The experiment can be described thus: Antiviral activity against Vesicular stomatitis virus infected in African green monkey Vero cells assessed as inhibition of cytopathic effect pre-infected with cells for 12 hrs followed by viral infection and measured after 24 hrs by fluorescence based CPE reduction method. It is filed as functional, organism-based. Background: Cytopathic effects are the visible damage that an infection or toxin causes in cultured cells.

The subject of experiment [2] is HCT-116. The experiment can be described thus: Cytotoxicity against human HCT-116 cells. It is filed as functional.
Experiment [3] in a line: Cytotoxicity against human MCF7/ADM cells. It is filed as functional.
For experiment [4], the system named is MDA-MB-231. The experiment can be described thus: Cytotoxicity against human MDA-MB-231 cells. It is filed as functional.
Experiment [5] has as its system Bel-7402. The experiment can be described thus: Cytotoxicity against human Bel-7402 cells. It is filed as functional.
Experiment [6] relates to SH-SY5Y. The experiment can be described thus: Cytotoxicity against human SH-SY5Y cells. It is filed as functional.
Experiment [7] concerns HL-60. The experiment can be described thus: Cytotoxicity against human HL-60 cells. It is filed as functional.
For experiment [8], the system named is A549. The experiment can be described thus: Cytotoxicity against human A549 cells. It is filed as functional.
Experiment [9] can be described thus: Cytotoxicity against human HO-8910 cells. It is filed as functional.
Experiment [10] has as its system U-87 MG. The experiment can be described thus: Cytotoxicity against human U87 cells. It is filed as functional, U-87MG ATCC.
In experiment [11] the test system is NCI-H1975. The experiment can be described thus: Cytotoxicity against human NCI-H1975 cells. It is filed as functional.
For experiment [12], the system named is MGC-803. The experiment can be described thus: Cytotoxicity against human MGC-803 cells. It is filed as functional.
The test system of experiment [13] is K562. The experiment can be described thus: Cytotoxicity against human K562 cells. It is filed as functional.
The subject of experiment [14] is Hepatitis C virus. The experiment can be described thus: Antiviral activity against HCV infected in human Huh7.5 cells stably expressing firefly luciferase by microplate luminometer based analysis. It is filed as functional, organism-based, Hepacivirus hominis.

On to `NC(=O)c1ncn([C@@H]2O[C@H](CO)[C@@H](O)[C@H]2O)n1` [RIBAVIRIN], for which, in experiment [1], the IC50 was determined as 46 nM. In the case of `C[C@@H]1Cc2c3c(cc(O)c2C(=O)O1)O[C@]1(C)CCC[C@](C)([C@H]2C[C@@H](O)C2(C)C)[C@H]1C3`, the CC50 in experiment [2], in experiment [3], in [4], in experiment [5], in experiment [6] and in experiment [7] was 3350 nM in each case. The CC50 in experiment [8], in [9], in experiment [10], in experiment [11], in [12] and in experiment [13] was 3350 nM each time. For `CC1=C(O)C(=O)[C@@]23C(C)CC[C@@H]2[C@H](C)CO[C@]32Oc3cc(O)cc(CO)c3C=C12` (stereo not given in full), in experiment [14], the half-maximal inhibitory concentration (IC50) came to 9500 nM. On to `CC(=O)O[C@@H]1c2c3c(cc(O)c2C(=O)O[C@@H]1C)O[C@]1(C)CC[C@]2(O)O[C@@]4(C(C)C)CC[C@]2(C)[C@]1(C3)O4`, for which the IC50 in experiment [1] was 570 nM.

As for `C[C@@H]1Cc2c3c(cc(O)c2C(=O)O1)O[C@]1(C)CC[C@]2(O)C(C)(C)[C@@]4(O)CC[C@]2(C)[C@]1(C3)O4`, the IC50 in experiment [1] was 130 nM. Same read-out and setting: in the case of `CC(=O)O[C@@H]1c2c3c(cc(O)c2C(=O)O[C@@H]1C)O[C@]1(C)CC[C@]2(O)C(C)(C)[C@@]4(O)CC[C@]2(C)[C@]1(C3)O4` it was 190 nM; in that of `CC(=O)O[C@@H]1c2c3c(c(Cl)c(O)c2C(=O)O[C@@H]1C)O[C@]1(C)CC[C@]2(O)O[C@@]4(C(C)C)CC[C@]2(C)[C@]1(C3)O4`, 260 nM; in that of `CC(C)C1=CC[C@@]2(C)C(=O)CC[C@@]3(C)Oc4cc(O)c5c(c4C[C@@]32O1)[C@@H](O)[C@@H](C)OC5=O`, 970 nM. `CC(=O)O[C@@H]1c2c3c(c(Cl)c(O)c2C(=O)O[C@@H]1C)O[C@]1(C)CCC(=O)[C@]2(C)CC=C(C(C)C)O[C@]12C3`: the IC50 in experiment [1] stood at 280 nM. Same read-out and setting: under `C[C@@H]1Cc2c3c(c(Cl)c(O)c2C(=O)O1)O[C@]1(C)CC[C@H]2C(C)(C)C(=O)CC[C@]2(C)[C@@]1(O)C3` stands 15 nM. On the same count and under the same terms, under `CC(=O)O[C@@H]1c2c3c(cc(O)c2C(=O)O[C@@H]1C)O[C@]1(C)CC[C@@H]2O[C@@]4(C(C)C)CC[C@]2(C)[C@]1(C3)O4` stands 490 nM; under `CC(C)[C@]12CC[C@@]3(C)[C@H](CC[C@@]4(C)Oc5c(Cl)c(O)c6c(c5C[C@@]43O1)C[C@@H](C)OC6=O)O2`, 18 nM; under `C[C@@H]1Cc2c3c(c(Cl)c(O)c2C(=O)O1)O[C@]1(C)CC[C@]2(O)C(C)(C)[C@@]4(O)CC[C@]2(C)[C@]1(C3)O4`, 83 nM. As to `CC(=O)O[C@@H]1c2c3c(c(Cl)c(O)c2C(=O)O[C@@H]1C)O[C@]1(C)CC[C@@H]2O[C@@]4(C(C)C)CC[C@]2(C)[C@]1(C3)O4`, in experiment [1], the IC50 was found to be 82 nM. Same read-out and setting: in the case of `CC(=O)O[C@@H]1c2c3c(cc(O)c2C(=O)O[C@@H]1C)O[C@]1(C)CCC(=O)[C@]2(C)CC=C(C(C)C)O[C@]12C3` it was 320 nM; in that of `CC(C)[C@@]12CC[C@]3(C)[C@]4(Cc5c(cc(O)c6c5[C@@H](O)[C@@H](C)OC6=O)O[C@]4(C)CC[C@]3(O)O1)O2`, 430 nM; in that of `CC(C)[C@]12CC[C@@]3(C)[C@H](CC[C@@]4(C)Oc5cc(O)c6c(c5C[C@@]43O1)C[C@@H](C)OC6=O)O2`, 910 nM.

As to `CC(C)[C@@]12CC[C@]3(C)[C@]4(Cc5c6c(c(O)c(Cl)c5O[C@]4(C)CC[C@]3(O)O1)C(=O)O[C@H](C)C6)O2`, the IC50 in experiment [1] amounted to 180 nM. `C[C@@H]1Cc2c3c(cc(O)c2C(=O)O1)O[C@]1(C)CC[C@H]2C(C)(C)C(=O)CC[C@]2(C)[C@H]1C3`: the IC50 in experiment [1] was determined as 23 nM.
